According to ChEMBL document CHEMBL4052658, “BACE1 inhibitory activity and molecular docking analysis of meroterpenoids from Sargassum serratifolium” (Bioorg Med Chem, 2017):
Activity calls are given as the source filed them. The calls are words filed in the database; no cut-off is given here.

Tests used:
[1] = biological target: T1, Beta-secretase 1 (Homo sapiens, UniProt P56817); assay: Mixed type inhibition of recombinant human BACE1 using Rh-EVNLDAEFK-Quencher as substrate after 60 mins by Dixon plot analysis
[2] = biological target: Acetylcholinesterase (Electrophorus electricus, UniProt O42275); assay: Inhibition of electric eel AChE using acetylthiocholine iodide as substrate incubated for 15 mins by spectrophotometric analysis
[3] = biological target: Cholinesterase (Equus caballus, UniProt P81908); assay: Inhibition of equine serum BChE using butyrylthiocholine chloride as substrate incubated for 15 mins by spectrophotometric analysis
[4] = biological target: T1, Beta-secretase 1; assay: Inhibition of recombinant human BACE1 using Rh-EVNLDAEFK-Quencher as substrate after 60 mins by FRET assay
[5] = biological target: T1, Beta-secretase 1; assay: Noncompetitive inhibition of recombinant human BACE1 using Rh-EVNLDAEFK-Quencher as substrate after 60 mins by Lineweaver-Burk plot analysis
[6] = biological target: T1, Beta-secretase 1; assay: Noncompetitive inhibition of recombinant human BACE1 using Rh-EVNLDAEFK-Quencher as substrate after 60 mins by Dixon plot analysis

T1 sequence (P56817 whole entry): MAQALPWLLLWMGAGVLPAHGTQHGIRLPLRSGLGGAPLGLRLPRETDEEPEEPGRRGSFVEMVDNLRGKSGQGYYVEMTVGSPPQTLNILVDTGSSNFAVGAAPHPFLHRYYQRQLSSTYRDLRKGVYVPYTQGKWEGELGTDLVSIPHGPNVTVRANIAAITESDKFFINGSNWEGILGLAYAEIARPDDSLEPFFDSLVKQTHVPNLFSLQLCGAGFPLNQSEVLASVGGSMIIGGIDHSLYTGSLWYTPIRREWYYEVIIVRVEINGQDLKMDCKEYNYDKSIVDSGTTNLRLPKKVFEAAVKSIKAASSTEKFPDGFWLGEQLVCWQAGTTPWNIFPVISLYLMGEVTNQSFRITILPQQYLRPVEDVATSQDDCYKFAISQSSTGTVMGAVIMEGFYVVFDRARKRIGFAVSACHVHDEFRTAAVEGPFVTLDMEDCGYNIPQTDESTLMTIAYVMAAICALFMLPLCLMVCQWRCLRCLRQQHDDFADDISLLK
Sequence of Cholinesterase (P81908 whole entry): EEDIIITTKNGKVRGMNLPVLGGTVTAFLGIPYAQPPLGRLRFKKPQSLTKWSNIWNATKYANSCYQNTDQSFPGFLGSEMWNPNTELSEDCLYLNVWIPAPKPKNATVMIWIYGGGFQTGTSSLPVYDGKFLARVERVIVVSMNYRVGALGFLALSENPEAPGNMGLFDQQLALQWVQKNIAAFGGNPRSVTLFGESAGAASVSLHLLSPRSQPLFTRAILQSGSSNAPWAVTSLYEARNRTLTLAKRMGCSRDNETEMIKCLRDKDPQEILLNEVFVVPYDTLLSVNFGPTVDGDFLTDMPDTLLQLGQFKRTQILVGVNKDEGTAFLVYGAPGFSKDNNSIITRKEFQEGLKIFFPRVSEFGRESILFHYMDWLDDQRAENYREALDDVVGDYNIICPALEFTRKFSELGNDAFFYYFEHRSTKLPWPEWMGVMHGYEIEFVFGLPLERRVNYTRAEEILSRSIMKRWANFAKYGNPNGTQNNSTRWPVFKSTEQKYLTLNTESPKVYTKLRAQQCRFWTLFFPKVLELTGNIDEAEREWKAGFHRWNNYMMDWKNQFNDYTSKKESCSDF
Sequence of Acetylcholinesterase (O42275 whole entry): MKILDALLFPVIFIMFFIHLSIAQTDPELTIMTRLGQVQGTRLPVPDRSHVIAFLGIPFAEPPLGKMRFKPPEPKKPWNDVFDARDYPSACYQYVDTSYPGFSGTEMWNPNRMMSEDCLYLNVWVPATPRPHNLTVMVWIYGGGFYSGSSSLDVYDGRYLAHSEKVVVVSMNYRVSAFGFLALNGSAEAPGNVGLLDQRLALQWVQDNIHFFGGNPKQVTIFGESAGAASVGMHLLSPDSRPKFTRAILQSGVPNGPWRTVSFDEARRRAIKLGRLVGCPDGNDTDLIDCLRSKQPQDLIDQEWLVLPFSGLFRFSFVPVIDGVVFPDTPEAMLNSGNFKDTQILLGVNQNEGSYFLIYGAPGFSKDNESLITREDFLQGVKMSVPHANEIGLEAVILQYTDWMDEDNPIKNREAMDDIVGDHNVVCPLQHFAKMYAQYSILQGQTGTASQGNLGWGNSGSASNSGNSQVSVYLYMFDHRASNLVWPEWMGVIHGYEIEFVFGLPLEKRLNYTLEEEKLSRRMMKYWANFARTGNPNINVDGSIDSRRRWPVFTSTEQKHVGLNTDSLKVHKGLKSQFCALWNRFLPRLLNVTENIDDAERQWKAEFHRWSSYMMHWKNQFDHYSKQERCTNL

`CC(C)=CCC/C(=C/CC/C(C)=C/CC/C(C)=C/Cc1cc(O)cc(C)c1O)C(=O)O` [SARGAHYDROQUINOIC ACID] showed a Ki [1] of 1.6 µM, an IC50 [2] of 124 µM and an IC50 [3] of 15.2 µM. It also gave an IC50 [4] of 4.4 µM.

For `CC(C)=CCC/C(=C/CC/C(C)=C/CC/C(C)=C/CC1=CC(=O)C=C(C)C1=O)C(=O)O`, the Ki [1] was 4 µM, the IC50 [2] was 69.3 µM and the IC50 [3] was 10.5 µM.

For `CC(C)=CCC/C(=C/CC/C(C)=C/CCC1(C)C=Cc2cc(O)cc(C)c2O1)C(=O)O` (stereo not drawn), the IC50 [2] was 97.3 µM, the IC50 [3] was 9.4 µM and the inhibition [5] was “Active”. The IC50 [4] was 7 µM and the Ki [6] was 2.9 µM.

With `COc1ccc2cc3[n+](cc2c1OC)CCc1cc2c(cc1-3)OCO2` [BERBERINE] the IC50 [2] was 1.6 µM.
